Test: Solubility in water and precipitation behaviour
Assay type: physicochemical
Method: 4-Amino-4-deoxy-N^10 -methylpteroic acid dihydrate (720 mg, 2.0 mmoles) is added in small portions to a stirred solution of diethylphosphorocyanidate (915 mg, 5 mmoles) and triethylamine (500 mg, 5 mmoles) in N,N-dimethylformamide (DMF) (75 ml) previously dried over Linde 4A molecular sieves. The solution is stirred at room temperature overnight, and an extra 25% of diethyl phosphorocyanidate and Et3 N is added. TLC (silica gel, 4:1 chloroform-methanol) indicates the formation of the activated intermediate to be complete. The silylated D,L-homocysteic acid triethylammonium salt (1.8 g, 4 mmoles) is then added, and the reaction mixture is stirred at room temperature for 44 hours. After addition of a few milliliters of water, the solvent is removed with the aid of a rotary evaporator and the residue is dissolved in 3 percent ammonium bicarbonate, with a few drops of concentrated ammonia being added as needed. […] The solution is taken up in a minimum of H2 O with just enough Nh4 OH added to dissolve all the solid, and the solution is applied to a DEAE-cellulose column that has been pre-equilibrated with 3 percent ammonium bicarbonate and then washed to neutrality with H2 O. The column is eluted with a large volume of H2 O, and then again with 3% NH4 HCO3. […] Individual 5-10 ml volumes of the NH4 HCO3 eluate are monitored by TLC. […]

CN(Cc1cnc2nc(N)nc(N)c2n1)c1ccc(C(=O)NC(CCS(=O)(=O)O)C(=O)O)cc1 (racemic) [mAPA-D,L-HCysA, N-(4-Amino-4-deoxy-N^10-methylpteroyl)-D,L-homocysteic acid]
solubility in water: very soluble in water | precipitation from basic solution (adjustment of the pH to 6, in contrast to methotrexate): cannot be precipitated from basic solution on adjustment of the pH to 6
